T1: proton-coupled folate transporter (PCFT) (Homo sapiens, UniProt Q96NT5)
T1 sequence (Q96NT5 1-459): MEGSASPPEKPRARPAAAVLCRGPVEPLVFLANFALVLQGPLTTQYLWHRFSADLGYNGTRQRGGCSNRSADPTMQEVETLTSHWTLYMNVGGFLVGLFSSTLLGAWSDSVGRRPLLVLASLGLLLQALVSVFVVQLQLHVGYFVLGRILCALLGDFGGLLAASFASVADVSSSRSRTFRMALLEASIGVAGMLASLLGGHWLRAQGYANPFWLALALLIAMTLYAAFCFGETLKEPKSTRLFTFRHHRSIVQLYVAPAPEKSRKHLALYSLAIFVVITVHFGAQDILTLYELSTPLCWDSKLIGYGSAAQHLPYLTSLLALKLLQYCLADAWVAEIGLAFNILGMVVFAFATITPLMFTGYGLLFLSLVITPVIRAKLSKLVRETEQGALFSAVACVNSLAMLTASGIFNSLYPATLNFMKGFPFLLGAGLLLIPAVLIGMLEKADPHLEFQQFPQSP


Legend:
[1] = target: T1, proton-coupled folate transporter (PCFT); assay: tritiated influx in HeLa R1-PCFT versus R1-11 cells; format: cell-based
[2] = substrate: C#CCC(Cc1cnc2nc(N)nc(N)c2n1)c1ccc(C(=O)N[C@@H](CCC(=O)O)C(=O)O)cc1; assay: cells, lysate or membranes; conditions: pH 7.4

| Molecule | tritiated influx in HeLa R1-PCFT versus R1-11 cells (poor substrate) [1] | Km [2] |
| --- | --- | --- |
| C#CCC(Cc1cnc2nc(N)nc(N)c2n1)c1ccc(C(=O)N[C@@H](CCC(=O)O)C(=O)O)cc1 (some centres unmarked) [pralatrexate] | among the antifolates tested, pralatrexate was the poorest substrate for PCFT | – |
| reduced folate carrier (RFC) (Homo sapiens) (protein) MVPSSPAVEKQVPVEPGPDPELRSWRHLVCYLCFYGFMAQIRPGESFITPYLLGPDKNFTREQVTNEITPVLSYSYLAVLVPVFLLTDYLRYTPVLLLQGLSFVSVWLLLLLGHSVAHMQLMELFYSVTMAARIAYSSYIFSLVRPARYQRVAGYSRAAVLLGVFTSSVLGQLLVTVGRVSFSTLNYISLAFLTFSVVLALFLKRPKRSLFFNRDDRGRCETSASELERMNPGPGGKLGHALRVACGDSVLARMLRELGDSLRRPQLRLWSLWWVFNSAGYYLVVYYVHILWNEVDPTTNSARVYNGAADAASTLLGAITSFAAGFVKIRWARWSKLLIAGVTATQAGLVFLLAHTRHPSSIWLCYAAFVLFRGSYQFLVPIATFQIASSLSKELCALVFGVNTFFATIVKTIITFIVSDVRGLGLPVRKQFQLYSVYFLILSIIYFLGAMLDGLRHCQRGHHPRQPPAQGLRSAAEEKAAQALSVQDKGLGGLQPAQSPPLSPEDSLGAVGPASLEQRQSDPYLAQAPAPQAAEFLSPVTTPSPCTLCSAQASGPEAADETCPQLAVHPPGVSKLGLQCLPSDGVQNVNQ | – | 0.52 ± 0.2 µM |
